In PMC6126659, “Structural basis for light control of cell development revealed by crystal structures of a myxobacterial phytochrome” (IUCrJ, 2018):

Key:
Type in all cases: binding
SaBphP1-CBD (PAS-GAF) = target: T1, SaBphP1-CBD (PAS-GAF) (Allostigmatella aurantiaca, UniProt Q097N3); experiment: X-ray crystallography ([…] K, […] A); details: covalent, Cys18; dark-adapted Pr state; pH 8.5
T1 construct: gene STIAU_3396; crystallographic dimer

[1] = target: T2, SaBphP1-PCM (PAS-GAF-PHY) (Allostigmatella aurantiaca, UniProt Q097N3, Y262F/T289H); experiment: UV-vis absorption spectroscopy of bilin-bound protein; details: covalent; dark / 700 / 750 nm illumination, room temperature
T2 construct: gene STIAU_3396; photosensory core module PAS-GAF-PHY, residues 1-516, pET28c(+), E. coli BL21(DE3) co-expressing heme oxygenase; dimer; histidine kinase domain absent
T2 sequence (Q097N3 entry or part of it Y262F/T289H): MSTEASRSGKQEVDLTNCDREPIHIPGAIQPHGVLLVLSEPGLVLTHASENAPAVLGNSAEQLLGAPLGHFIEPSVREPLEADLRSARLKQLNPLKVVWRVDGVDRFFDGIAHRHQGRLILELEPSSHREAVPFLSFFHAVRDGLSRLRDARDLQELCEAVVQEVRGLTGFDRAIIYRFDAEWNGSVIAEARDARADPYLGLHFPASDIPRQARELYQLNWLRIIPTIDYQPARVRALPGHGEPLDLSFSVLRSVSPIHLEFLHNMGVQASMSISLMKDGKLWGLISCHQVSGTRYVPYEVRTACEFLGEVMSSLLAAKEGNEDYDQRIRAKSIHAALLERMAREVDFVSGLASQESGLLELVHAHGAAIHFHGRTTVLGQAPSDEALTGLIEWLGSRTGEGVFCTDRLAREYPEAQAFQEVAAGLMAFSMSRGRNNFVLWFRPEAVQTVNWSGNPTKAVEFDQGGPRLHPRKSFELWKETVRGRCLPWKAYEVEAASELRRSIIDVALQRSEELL

[2] = target: T3, SaBphP1-PCM (PAS-GAF-PHY) (Allostigmatella aurantiaca, UniProt Q097N3, T289H); experiment: X-ray crystallography ([…] K, […] A; XFEL […] K, […] A); details: covalent, Cys18; dark-adapted Pr state; pH 6.2
T3 construct: gene STIAU_3396; photosensory core module PAS-GAF-PHY, residues 1-516, pET28c(+), E. coli BL21(DE3) co-expressing heme oxygenase; dimer; histidine kinase domain absent
T3 sequence (Q097N3 entry or part of it T289H): as the sequence (Q097N3 entry or part of it Y262F/T289H) above, with F262Y counted along it

[3] = target: T4, SaBphP1-PCM (PAS-GAF-PHY) (Allostigmatella aurantiaca, UniProt Q097N3, D208T/T289H); experiment: UV-vis absorption spectroscopy of bilin-bound protein; details: covalent; 740 / 700 nm illumination, room temperature
T4 construct: gene STIAU_3396; photosensory core module PAS-GAF-PHY, residues 1-516, pET28c(+), E. coli BL21(DE3) co-expressing heme oxygenase; dimer; histidine kinase domain absent
T4 sequence (Q097N3 entry or part of it D208T/T289H): as the sequence (Q097N3 entry or part of it Y262F/T289H) above, with D208T, F262Y counted along it

[4] = target: T5, SaBphP1-PCM (PAS-GAF-PHY) (Allostigmatella aurantiaca, UniProt Q097N3); experiment: X-ray crystallography ([…] K, […] A); details: covalent, Cys18; dark-adapted Pr state; pH 6.2
T5 construct: gene STIAU_3396; photosensory core module PAS-GAF-PHY, residues 1-516, pET28c(+), E. coli BL21(DE3) co-expressing heme oxygenase; dimer; histidine kinase domain absent
T5 sequence (Q097N3 entry or part of it): as the sequence (Q097N3 entry or part of it Y262F/T289H) above, with F262Y, H289T counted along it

T1 sequence (Q097N3 entry or part of it): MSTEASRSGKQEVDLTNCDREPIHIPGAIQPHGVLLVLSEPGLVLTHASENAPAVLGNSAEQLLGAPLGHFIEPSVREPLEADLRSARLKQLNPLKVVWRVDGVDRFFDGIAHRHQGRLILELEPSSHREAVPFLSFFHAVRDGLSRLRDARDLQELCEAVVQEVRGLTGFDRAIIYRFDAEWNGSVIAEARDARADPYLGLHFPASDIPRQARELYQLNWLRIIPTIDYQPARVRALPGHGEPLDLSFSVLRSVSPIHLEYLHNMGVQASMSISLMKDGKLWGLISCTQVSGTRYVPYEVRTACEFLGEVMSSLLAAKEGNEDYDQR

Question: How did the “X-ray crystallography (100 K, 2.25 A)” value (SaBphP1-CBD (PAS-GAF)) turn out when C=CC1=C(C)C(=Cc2[nH]c(C=C3N=C(C=C4NC(=O)C(C)=C4C=C)C(C)=C3CCC(=O)O)c(CCC(=O)O)c2C)NC1=O [biliverdin] was run?
Answer: The BV chromophore is bound to Cys18 close to the N-terminus

Question: And the “UV-vis absorption spectroscopy of bilin-bound protein” value [1]?
Answer: the dark-adapted spectrum of the Y262F T289H double mutant

Question: And the “X-ray crystallography (100 K, 2.65 A; XFEL 293 K, 3.15 A)” value [2]?
Answer: the BV A ring tilts with the covalent bond to the Cys18 S atom

Question: And the “UV-vis absorption spectroscopy of bilin-bound protein” value [3]?
Answer: The mutation of Asp208 to threonine (D208T) abolishes the formation of a stable E-configuration

Question: And the “X-ray crystallography (100 K, 2.25 A)” value [4]?
Answer: electron density that appeared in the chromophore binding pocket was interpreted by a biliverdin linked to Cys18
